In US11400059B2, “Treatment of pain and/or pain related symptoms associated with dysmenorrhea” (ALYRA BIOTECH PTY LTD, priority 2017, dated 2022):

What was measured:
hTLR7 = target: T1, hTLR7 (Homo sapiens, UniProt Q9NYK1); test: Human TLR antagonist screening, NF-κB SEAP reporter in HEK293 cells; type: cell-based; conditions: antagonist mode, test article 1 μM, +CL307 10 ng/ml, No Sample 13, Control− 1
T1 construct: expressed in transfected cells; host or cells: HEK293
T1 sequence (Q9NYK1 27-1049): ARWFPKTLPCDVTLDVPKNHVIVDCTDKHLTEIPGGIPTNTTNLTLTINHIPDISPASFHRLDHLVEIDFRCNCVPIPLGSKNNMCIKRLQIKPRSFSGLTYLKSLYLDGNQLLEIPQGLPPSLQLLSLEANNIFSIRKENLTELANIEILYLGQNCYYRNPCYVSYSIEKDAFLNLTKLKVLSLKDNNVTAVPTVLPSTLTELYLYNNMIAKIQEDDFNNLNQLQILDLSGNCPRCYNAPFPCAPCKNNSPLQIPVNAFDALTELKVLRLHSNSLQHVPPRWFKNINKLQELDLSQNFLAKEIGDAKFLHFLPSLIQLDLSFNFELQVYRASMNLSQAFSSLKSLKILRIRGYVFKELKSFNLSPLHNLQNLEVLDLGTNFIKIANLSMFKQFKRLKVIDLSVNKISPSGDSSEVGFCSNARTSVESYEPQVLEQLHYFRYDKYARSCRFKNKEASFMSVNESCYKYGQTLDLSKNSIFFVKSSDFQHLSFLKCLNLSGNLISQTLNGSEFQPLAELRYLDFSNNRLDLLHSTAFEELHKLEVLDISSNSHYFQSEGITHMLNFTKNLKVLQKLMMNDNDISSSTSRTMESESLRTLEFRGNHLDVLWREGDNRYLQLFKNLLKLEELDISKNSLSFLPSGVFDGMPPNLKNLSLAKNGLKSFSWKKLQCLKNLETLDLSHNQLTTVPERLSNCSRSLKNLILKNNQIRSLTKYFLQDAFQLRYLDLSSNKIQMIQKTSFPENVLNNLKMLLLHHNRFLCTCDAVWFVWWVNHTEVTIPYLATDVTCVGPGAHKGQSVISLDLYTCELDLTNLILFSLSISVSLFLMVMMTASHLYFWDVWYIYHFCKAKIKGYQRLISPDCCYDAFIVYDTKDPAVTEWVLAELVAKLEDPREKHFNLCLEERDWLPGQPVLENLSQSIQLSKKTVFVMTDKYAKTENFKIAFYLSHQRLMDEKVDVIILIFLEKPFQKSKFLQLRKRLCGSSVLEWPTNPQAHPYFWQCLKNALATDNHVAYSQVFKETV
Description: (§1) Toll-Like Receptor (TLR), NOD-Like Receptor (NLR) and C-Type Lectin Receptor (CLR) stimulation were tested by assessing NF-κB activation in HEK293 cells expressing a given TLR, NLR or CLR. The activity of the test articles was tested at one concentration and compared to control ligands. These steps were performed in triplicate. hTLR7: CL307 at 1 μg/mL Antagonist: 10 ng/mL. In a 96-well plate (200 μL total volume) containing the appropriate cells (50,000-75,000 cells/well), 20 μL of the test article or the positive control ligand was added to the wells. For the antagonist assay, the test article was incubated with the cells, at 37° C. with 5% CO2, for 30 minutes prior to the addition of the positive control ligand to the wells. The media added to the wells was designed for the detection of NF-κB induced SEAP expression. […] Fold induction (ratio of average induced value to average non-induced value) was determined for each TLR, NOD1, NOD2, Dectin-1a, Dectin-1b.

hTLR5 = target: T2, hTLR5 (Homo sapiens, UniProt O60602); test: as above; type: cell-based; conditions: antagonist mode, test article 1 μM, +FLA-ST 50 ng/ml, No Sample 34, Control− 1
T2 construct: expressed in transfected cells; host or cells: HEK293
Description: as §1, with “hTLR7: CL307 at 1 μg/mL Antagonist: 10 ng/mL.” left out

T2 sequence (O60602 21-858): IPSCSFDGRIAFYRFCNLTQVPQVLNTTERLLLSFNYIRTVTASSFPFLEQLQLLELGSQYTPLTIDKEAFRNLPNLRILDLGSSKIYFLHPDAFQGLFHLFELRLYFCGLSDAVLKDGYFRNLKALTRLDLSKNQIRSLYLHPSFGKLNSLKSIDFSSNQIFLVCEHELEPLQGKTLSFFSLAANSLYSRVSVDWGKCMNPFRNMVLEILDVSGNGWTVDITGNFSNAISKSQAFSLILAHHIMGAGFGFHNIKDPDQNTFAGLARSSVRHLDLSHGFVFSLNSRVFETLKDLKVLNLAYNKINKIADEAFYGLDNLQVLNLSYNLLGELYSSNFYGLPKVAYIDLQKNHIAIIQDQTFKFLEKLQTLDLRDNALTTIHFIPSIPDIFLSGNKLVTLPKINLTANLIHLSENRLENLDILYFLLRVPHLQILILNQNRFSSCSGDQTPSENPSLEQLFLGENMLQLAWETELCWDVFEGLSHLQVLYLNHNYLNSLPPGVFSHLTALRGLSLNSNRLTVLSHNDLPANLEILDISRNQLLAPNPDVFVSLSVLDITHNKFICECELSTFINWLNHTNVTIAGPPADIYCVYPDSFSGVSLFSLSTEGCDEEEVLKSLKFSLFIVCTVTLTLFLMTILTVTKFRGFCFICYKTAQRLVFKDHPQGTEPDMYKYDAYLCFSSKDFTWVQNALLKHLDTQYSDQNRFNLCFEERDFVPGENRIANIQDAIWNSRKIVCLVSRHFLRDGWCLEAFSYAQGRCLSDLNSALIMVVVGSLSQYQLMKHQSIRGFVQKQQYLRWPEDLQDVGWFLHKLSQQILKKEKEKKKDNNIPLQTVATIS

| Compound | Fold Induction (hTLR7) | Fold Induction (hTLR7; listed as Nor) | Fold Induction (hTLR5) | Fold Induction (hTLR7; listed as Ami) | Fold Induction (hTLR5; listed as Ami) |
| --- | --- | --- | --- | --- | --- |
| CNCCC=C1c2ccccc2CCc2ccccc21 [Nortriptyline] | slight potentiating | 16 | 34 | – | – |
| CN(C)CCC=C1c2ccccc2CCc2ccccc21 [Amitriptyline] | slight potentiating effect | – | slight inhibitory effect | 16 | 33 |
